Laboratory results from article PMC10196118, “Evidence for broad cross-reactivity of the SARS-CoV-2 NSP12-directed CD4^+ T-cell response with pre-primed responses directed against common cold coronaviruses” (Frontiers in Immunology, 2023).

Key:
Assay in all cases: biochemical
Type in all cases: binding
[1] = target: HLA DRB1*12:01 (Homo sapiens, UniProt P01903+P01911, A100R/A169T/D57E/D86V/F55L/H45Y/K41T/L162R/M171V/P40S/Q125H/Q178H/Q39Y/Q99D/R42G/S66L/T262R/V114A/V67L/W38E/Y59H/Y61H/Y89S); details: binder threshold 1,000 nM, read-out: In vitro (IC50 nM) DRB1*12:01
[2] = target: HLA DRB1*01:01 (Homo sapiens, UniProt P01903+P01911, A100R/D57E/F55L/F60I/F76Y/I96L/L162R/M171V/P40L/Q125E/R42F/V115G/Y59C); details: binder threshold 1,000 nM, read-out: In vitro (IC50 nM) DRB1*01:01
[3] = target: HLA DRB1*03:01 (Homo sapiens, UniProt P01903+P01911, A100K/A102G/A103R/A169T/F55Y/I96L/K41T/L162R/M171V/P40S/Q125H/Q178H/Q39Y/R42S/S66N/T106N/T262R/W38E/Y61H); details: binder threshold 1,000 nM, read-out: In vitro (IC50 nM) DRB1*03:01
[4] = target: HLA DRB1*04:01 (Homo sapiens, UniProt P01903+P01911, A100K/A169T/F76Y/I96L/K127E/L162R/M171V/N62H/P40V/Q125Y/R42H/S133A/S149N/S66Y/V115G/V209L/W38E); details: binder threshold 1,000 nM, read-out: In vitro (IC50 nM) DRB1*04:01
[5] = target: HLA DRB1*04:05 (Homo sapiens, UniProt P01903+P01911, A100R/A169T/D86S/F76Y/I96L/K127E/L162R/M171V/N62H/P40V/Q125Y/R42H/S133A/S149N/S66Y/V115G/V209L/W38E); details: binder threshold 1,000 nM, read-out: In vitro (IC50 nM) DRB1*04:05
[6] = target: HLA DRB1*11:01 (Homo sapiens, UniProt P01903+P01911, A100R/A169T/A87E/I96F/K41T/L162R/M171V/P40S/Q125H/Q178H/Q39Y/Q99D/R42S/S66Y/T262R/V115G/W38E); details: binder threshold 1,000 nM, read-out: In vitro (IC50 nM) DRB1*11:01
[7] = target: HLA DRB1*08:02 (Homo sapiens, UniProt P01903+P01911, A100R/A103L/A169T/F76Y/H45Y/I96F/K41T/L162R/M171V/P40S/Q125H/Q178H/Q39Y/Q99D/R218S/R42G/S66Y/V115G/W38E); details: binder threshold 1,000 nM, read-out: In vitro (IC50 nM) DRB1*08:02
[8] = target: HLA DRB1*07:01 (Homo sapiens, UniProt P01903+P01911, A100R/A102G/A103Q/D57E/D86V/E43K/F76Y/K127E/L162R/M171V/P40G/Q125H/Q99D/R33Q/R42Y/R54Q/S133A/S66F/T210M/V115G/Y107V/Y59L/Y89S); details: binder threshold 1,000 nM, read-out: In vitro (IC50 nM) DRB1*07:01
[9] = target: HLA DRB1*09:01 (Homo sapiens, UniProt P01903+P01911, A100R/A103E/D57H/D86V/F55Y/F60I/F76Y/I96F/K127E/L162R/M171V/P40D/Q125H/Q99R/R33Q/R42F/S133A/S66N/T210M/V115G/W38K/Y107V/Y59G/Y89S); details: binder threshold 1,000 nM, read-out: In vitro (IC50 nM) DRB1*09:01
[10] = target: HLA DRB1*15:01 (Homo sapiens, UniProt P01903+P01911); details: binder threshold 1,000 nM, read-out: In vitro (IC50 nM) DRB1*15:01
[11] = target: HLA DRB1*13:02 (Homo sapiens, UniProt P01903+P01911, A100E/A169T/K41T/L162R/M171V/P40S/Q125H/Q178H/Q39Y/Q99D/R42S/S66N/T262R/V115G/W38E/Y61H); details: binder threshold 1,000 nM, read-out: In vitro (IC50 nM) DRB1*13:02
HLA DRB1*13:02, sequence (P01903 26-254 limits assumed, other chains not shown): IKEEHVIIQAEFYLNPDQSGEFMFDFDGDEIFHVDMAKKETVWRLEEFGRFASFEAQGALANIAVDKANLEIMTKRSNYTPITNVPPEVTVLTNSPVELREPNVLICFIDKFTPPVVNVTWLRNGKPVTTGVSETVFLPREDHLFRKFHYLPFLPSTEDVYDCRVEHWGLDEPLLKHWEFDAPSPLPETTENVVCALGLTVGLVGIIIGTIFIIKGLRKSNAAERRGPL

HLA DRB1*03:01, sequence (P01903 26-254, other chains not shown): as the sequence (P01903 26-254 limits assumed, other chains not shown) above
HLA DRB1*11:01, sequence (P01903 26-254, other chains not shown): as the sequence (P01903 26-254 limits assumed, other chains not shown) above

SMILES | IC50 [1] [nM] | IC50 [2] [nM] | IC50 [3] [nM] | IC50 [4] [nM] | IC50 [5] [nM] | IC50 [6] [nM] | IC50 [7] [nM] | IC50 [8] [nM] | IC50 [9] [nM] | IC50 [10] [nM] | IC50 [11] [nM]
CC[C@H](C)[C@H](NC(=O)[C@@H]1CCCN1C(=O)[C@H](CCSC)NC(=O)[C@H](CC(C)C)NC(=O)[C@H](CC(C)C)NC(=O)[C@H](CO)NC(=O)[C@H](Cc1ccc(O)cc1)NC(=O)[C@H](Cc1ccc(O)cc1)NC(=O)[C@@H](N)CO)C(=O)N[C@@H](CC(C)C)C(=O)N[C@H](C(=O)N[C@@H](CC(C)C)C(=O)N[C@H](C(=O)N[C@@H](CCCNC(=N)N)C(=O)N[C@@H](C)C(=O)O)[C@@H](C)O)[C@@H](C)O [NSP12_48] | 1350 | 7.7 | 9120 | 224 | 147 | 73 | 498 | 115 | 1550 | 23 | 
CC[C@H](C)[C@H](NC(=O)[C@@H]1CCCN1C(=O)[C@H](CCSC)NC(=O)[C@@H](N)CC(C)C)C(=O)N[C@@H](CC(C)C)C(=O)N[C@H](C(=O)N[C@@H](CC(C)C)C(=O)N[C@H](C(=O)N[C@@H](CCCNC(=N)N)C(=O)N[C@@H](C)C(=O)N[C@@H](CC(C)C)C(=O)N[C@H](C(=O)N[C@@H](C)C(=O)N[C@@H](CCC(=O)O)C(=O)N[C@@H](CO)C(=O)O)[C@@H](C)O)[C@@H](C)O)[C@@H](C)O [NSP12_49] | 131 | 136 | 12100 | 20 | 367 | 37 | 283 | 15 | 123 | 37 | 409
CC(C)C[C@H](NC(=O)[C@H](C)NC(=O)[C@H](CCCNC(=N)N)NC(=O)[C@@H](NC(=O)[C@H](CC(C)C)NC(=O)[C@@H](N)[C@@H](C)O)[C@@H](C)O)C(=O)N[C@H](C(=O)N[C@@H](C)C(=O)N[C@@H](CCC(=O)O)C(=O)N[C@@H](CO)C(=O)N[C@@H](Cc1c[nH]cn1)C(=O)N[C@H](C(=O)N[C@@H](CC(=O)O)C(=O)N[C@H](C(=O)N[C@@H](CC(=O)O)C(=O)O)[C@@H](C)O)C(C)C)[C@@H](C)O [NSP12_50] | 4490 | 2100 | 1640 | 4.1 | 99 | 301 | 501 | 14 | 59 | 1290 | 
CC[C@H](C)[C@H](NC(=O)[C@@H](NC(=O)[C@@H]1CCCN1C(=O)[C@@H](NC(=O)[C@@H](NC(=O)[C@H](CC(N)=O)NC(=O)[C@H](CCCNC(=N)N)NC(=O)[C@H](CCCCN)NC(=O)[C@@H](NC(=O)[C@H](Cc1ccc(O)cc1)NC(=O)[C@H](C)NC(=O)[C@H](Cc1ccccc1)NC(=O)[C@H](CC(C)C)NC(=O)[C@H](C)N)[C@@H](C)O)C(C)C)[C@@H](C)CC)[C@@H](C)O)C(=O)N[C@H](C(=O)O)[C@@H](C)O [NSP12_106] | 756 | 7360 | 709 | 3660 | 13000 | 6.6 | 190 | 1.6 | 52 | 770 | 32
CSCC[C@H](NC(=O)[C@@H](NC(=O)[C@@H]1CCCN1C(=O)[C@H](CC(C)C)NC(=O)[C@H](CC(N)=O)NC(=O)[C@H](Cc1ccc(O)cc1)NC(=O)[C@H](CCCNC(=N)N)NC(=O)[C@H](Cc1ccc(O)cc1)NC(=O)[C@H](Cc1ccc(O)cc1)NC(=O)[C@H](CC(=O)O)NC(=O)[C@H](Cc1ccc(O)cc1)NC(=O)[C@H](CC(=O)O)NC(=O)[C@@H](N)CO)[C@@H](C)O)C(=O)N[C@@H](CS)C(=O)N[C@@H](CC(=O)O)C(=O)O [Peptide 91] | 29600 | 6670 |  | 830 | 3280 | 18200 | 3510 | 549 | 1430 | 1480 | 13600
CC[C@H](C)[C@H](NC(=O)[C@H](CC(=O)O)NC(=O)[C@H](CS)NC(=O)[C@H](CCSC)NC(=O)[C@@H](NC(=O)[C@@H]1CCCN1C(=O)[C@H](CC(C)C)NC(=O)[C@H](CC(N)=O)NC(=O)[C@H](Cc1ccc(O)cc1)NC(=O)[C@H](CCCNC(=N)N)NC(=O)[C@@H](N)Cc1ccc(O)cc1)[C@@H](C)O)C(=O)N[C@@H](CCCNC(=N)N)C(=O)N[C@@H](CCC(N)=O)C(=O)N[C@@H](CC(C)C)C(=O)N[C@@H](CC(C)C)C(=O)O [Peptide 92] | 5120 | 12000 |  | 5310 | 4640 | 8940 |  | 1840 | 1490 | 2910 | 
CC(C)C[C@H](NC(=O)[C@H](C)NC(=O)[C@H](CC(=O)O)NC(=O)[C@H](CCC(N)=O)NC(=O)[C@H](CC(=O)O)NC(=O)[C@H](CCC(=O)O)NC(=O)[C@@H](N)Cc1ccc(O)cc1)C(=O)N[C@@H](Cc1ccccc1)C(=O)N[C@@H](C)C(=O)N[C@@H](Cc1ccc(O)cc1)C(=O)N[C@H](C(=O)N[C@@H](CCCCN)C(=O)N[C@@H](CCCNC(=N)N)C(=O)N[C@@H](CC(N)=O)C(=O)N[C@H](C(=O)O)C(C)C)[C@@H](C)O [Peptide 105] |  | 16000 | 39400 | 3090 |  | 21 | 495 | 35 | 8570 | 480 | 
CC(C)[C@H](NC(=O)[C@H](CO)NC(=O)[C@H](CC(N)=O)NC(=O)[C@H](C)NC(=O)[C@H](Cc1ccc(O)cc1)NC(=O)[C@H](C)NC(=O)[C@@H](NC(=O)[C@@H](NC(=O)[C@H](C)NC(=O)[C@H](CC(=O)O)NC(=O)CNC(=O)[C@H](CO)NC(=O)[C@@H](N)CO)[C@@H](C)O)[C@@H](C)O)C(=O)N[C@@H](Cc1ccccc1)C(=O)N[C@@H](CC(N)=O)C(=O)O [Peptide 137] | 22700 | 1800 |  | 5180 | 27200 | 15900 |  | 3970 | 197 | 567 | 
CC(C)C[C@H](NC(=O)[C@H](Cc1ccc(O)cc1)NC(=O)[C@H](C)NC(=O)[C@H](Cc1ccc(O)cc1)NC(=O)[C@H](Cc1ccccc1)NC(=O)[C@H](CCC(=O)O)NC(=O)[C@H](CC(N)=O)NC(=O)[C@@H](NC(=O)[C@H](Cc1ccccc1)NC(=O)[C@H](CC(=O)O)NC(=O)[C@@H](NC(=O)[C@H](CC(=O)O)NC(=O)[C@@H](NC(=O)[C@@H](N)CC(=O)O)C(C)C)[C@@H](C)O)C(C)C)C(=O)N[C@@H](CCCNC(=N)N)C(=O)O [Peptide 148] |  | 856 | 28500 | 16900 |  | 949 | 2200 |  | 6950 | 1180 | 
